Experimental data reported in paper PMC7669869, “AdipoR1/AdipoR2 dual agonist recovers nonalcoholic steatohepatitis and related fibrosis via endoplasmic reticulum-mitochondria axis” (Nature Communications, 2020).
Non-standard residues stand in square brackets, D forms with d. Residues, ends and D or L forms follow the SMILES beside them. Nva = CCC[C@H](N)C(=O)O

What was measured:
[1] = test system: liver gene expression of HFD induced NASH mice; assay: HFD mice: liver mRNA, quantitative RT-PCR; assay type: in vivo, mouse; conditions: for CD14 liver mRNA, relative expression, Supplementary Figure 11b / F4/80 liver mRNA, relative expression, Supplementary Figure 11b / IL-1b liver mRNA, relative expression, Supplementary Figure 11b / IL-6 liver mRNA, relative expression, Supplementary Figure 11b / LY6G liver mRNA, relative expression, Supplementary Figure 11b / iNOS liver mRNA, relative expression, Supplementary Figure 11b: HFD + JT003 mice
Experimental: The NASH model was conducted with feeding a HFD for 16 weeks combine with a MCD diet (Methionine/Choline Deficient Diet, Medicience, China) in the last 4 weeks. Mice administered a MCS diet (Methionine/Choline Sufficient Diet, Medicience, China) serves as control group. NAFLD or NASH mice treated with JT003 for 4 weeks were used to evaluate the pharmacological effects (n = 6; 500 μg kg^−1; daily intraperitoneal injection). Food and water were provided ad libitum. The body weight of mice was examined every 3 days. The diet was renewed every 7 days. JT003 was diluted in PBS.
Liver total RNA was extracted by using Trizol reagent following the manufacture’s instruction (TransGen Biotech, China). The concentration of RNA was measured by Nanodrop 2000 (ThermoFisher Scientific, USA). cDNA was transcribed from 10ug total RNA with First Strand cDNA synthesis Super Mix (TransGen Biotech, China). The cDNA was diluted 1/50 and 1.0 uL were used as a template for qPCR. qPCR was performed with SYBR Green qPCR Super Mix (TransGen Biotech, China) in the Light Cycler 480 Real-Time PCR System (Roche, Swiss). Reference gene β-actin was used for data normalization. mRNA expression was analyzed with specific primers listed in Supplementary Table 2.

[2] = test system: CCl4 induced liver fibrosis mice; assay: CCl4 mice: serum ALT, AST and liver HYP; assay type: in vivo, mouse; parameters: AST, Supplementary Figure 14 / HYP, Supplementary Figure 14: unit not given here; conditions: for HYP, Supplementary Figure 14 / AST, Supplementary Figure 14: CCl4 + JT003 mice; for HYP, Supplementary Figure 14: liver; for AST, Supplementary Figure 14: serum
Experimental: (§1) Male mice liver fibrosis was induced by intraperitoneal injection of 20% CCl4 (Sigma, USA) diluted in corn oil (Aladdin, China) every 3 days for 6 weeks (n = 6; 5 ml kg^−1 body weight). Mice injected with equivalent volume of corn oil serves as control group (n = 6). Liver fibrosis mice treated with JT003 for 3 weeks were used to evaluated the pharmacological effects (n = 6; 500 μg kg^−1; daily intraperitoneal injection).
The levels of ALT, AST, TC and TG in serum were determined using certain commercial assay kits (Nanjing Jiancheng Bioengineering Institute, China). Fasting adiponectin and insulin were quantified in plasma samples using corresponding commercially available Elisa kits (Cloud-Clone Crop, USA).
(§2) The levels of TG and HYP in liver tissue were detected with certain commercial assay kit (Nanjing Jiancheng Bioengineering Institute, China). Formalin-fixed liver tissues were embedded in paraffin, sectioned into 5 μm slices. After deparaffinization and rehydration of the section slices, they were stained with Haematoxylin and Eosin or Periodic Acid-Schiff. For the detection of liver collagen content, Sirius Red staining for collagen was performed. OCT-embedded frozen liver tissues were sectioned into 12 μm slices, and Oil Red O staining was performed. The cryostat-cut slices were stained with freshly prepared Oil Red O working solution for 7 min Two independent experimenters who were blinded to the treatment evaluated the staining slides and analyzed the score for steatosis, glucogen accumulation and collagen proliferation area.

AdipoR2 = molecular target: T1, AdipoR2 (Homo sapiens, UniProt Q86V24); assay: HTRF binding, AdipoR2 overexpression HEK293 cells; conditions: in words
T1 construct: His; host or cells: HEK293
T1 sequence (Q86V24 1-386): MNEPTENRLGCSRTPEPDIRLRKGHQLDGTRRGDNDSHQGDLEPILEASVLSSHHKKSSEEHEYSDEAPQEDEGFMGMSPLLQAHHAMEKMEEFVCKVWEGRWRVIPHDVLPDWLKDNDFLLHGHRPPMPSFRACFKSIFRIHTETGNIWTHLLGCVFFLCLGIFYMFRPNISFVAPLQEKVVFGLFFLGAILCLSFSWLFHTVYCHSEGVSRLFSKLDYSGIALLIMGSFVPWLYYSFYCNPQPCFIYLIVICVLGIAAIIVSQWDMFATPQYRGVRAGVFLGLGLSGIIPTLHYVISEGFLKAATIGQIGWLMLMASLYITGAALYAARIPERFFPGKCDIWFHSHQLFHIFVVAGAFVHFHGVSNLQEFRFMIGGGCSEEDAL
Experimental: The expression plasmid of AdipoR1 and AdipoR2 were synthesized and codon optimized by Genescript (Nanjing, China) for their expression in HEK293 cell line. The concentration of FITC-JT003 was 0, 0.1, 0.25, 0.5, 1, 2.5 or 5 μM respectively. Unlabeled peptide JT003 was used as the control to measure the non-specific signal. 10E4 AdipoR1 and AdipoR2 overexpression cells, anti-His-Tb (ThermoFisher Scientific, USA) and JT003-FITC were added into a 384-well plate, with a total volume of 25μl. The mixtures were incubated at room temperature for 30 min in the dark. Fluorescent values at 520 nm and 620 nm were measured for Kd calculation.

[3] = test system: CCl4 induced liver fibrosis mice; assay: CCl4 induced liver fibrosis mice: liver appearance, body weight, HE, Sirius red, IHC (αSMA, COL1α1, CD68); assay type: in vivo, mouse; conditions: in words
Experimental: as §1, §2
Paraffin-embedded liver slices were deparaffinized and rehydrated, antigen retrieval was performed under the high pressure and temperature in 0.01 M sodium citrate buffer (pH = 6.0). To quench the endogenous peroxidase activity, the slices were then incubated with 1% hydrogen peroxide in methanol for 10 min in room temperature. Then slices were incubated with corresponding primary antibodies. After washing, HRP-conjugated secondary antibodies specific to the species of the primary antibodies were used. After the section were developed with DAB, hematoxylin staining was performed for cell counting.

[4] = HFD mice, liver, JT003 500 μg kg−1, in words

In the case of `CCC[C@H](NC(=O)[C@@H]1CCCN1)C(=O)N[C@@H](CC(C)C)C(=O)N[C@@H](Cc1ccc(O)cc1)C(=O)N[C@@H](Cc1ccc(O)cc1)C(=O)N[C@@H](Cc1ccccc1)C(=O)N[C@@H](C)C(N)=O` [JT003] (H-P[Nva]LYYFA-NH2), the “CD14 liver mRNA, relative expression, Supplementary Figure 11b” value (shortened to “CD14 liver mRNA, relative expression”) ([1]; replicate 1) was 0.836, the “F4/80 liver mRNA, relative expression, Supplementary Figure 11b” value (“F4/80 liver mRNA, relative expression” below) ([1]; replicate 1) was 1.324 and the “IL-1b liver mRNA, relative expression, Supplementary Figure 11b” value (“IL-1b liver mRNA, relative expression” below) ([1]; replicate 1) was 0.2358. The “IL-6 liver mRNA, relative expression, Supplementary Figure 11b” value (shortened to “IL-6 liver mRNA, relative expression”) ([1]; replicate 1) was 0.3838, the “LY6G liver mRNA, relative expression, Supplementary Figure 11b” value (“LY6G liver mRNA, relative expression” for short) ([1]; replicate 1) was 1.539 and the “iNOS liver mRNA, relative expression, Supplementary Figure 11b” value (from here on “iNOS liver mRNA, relative expression”) ([1]; replicate 1) was 0.7587. The “CD14 liver mRNA, relative expression” value ([1]; replicate 2) was 0.7038, the “F4/80 liver mRNA, relative expression” value ([1]; replicate 2) was 1.41 and the “IL-1b liver mRNA, relative expression” value ([1]; replicate 2) was 0.3558. The “IL-6 liver mRNA, relative expression” value ([1]; replicate 2) was 0.9338, the “LY6G liver mRNA, relative expression” value ([1]; replicate 2) was 2.089 and the “iNOS liver mRNA, relative expression” value ([1]; replicate 2) was 1.076. For the same compound, the “CD14 liver mRNA, relative expression” value ([1]; replicate 3) was 0.548, the “F4/80 liver mRNA, relative expression” value ([1]; replicate 3) was 0.6014 and the “IL-1b liver mRNA, relative expression” value ([1]; replicate 3) was 0.1532. The “IL-6 liver mRNA, relative expression” value ([1]; replicate 3) was 0.2832, the “LY6G liver mRNA, relative expression” value ([1]; replicate 3) was 0.8264 and the “iNOS liver mRNA, relative expression” value ([1]; replicate 3) was 1.076. For the same compound, the “CD14 liver mRNA, relative expression” value ([1]; replicate 4) was 0.7504, the “F4/80 liver mRNA, relative expression” value ([1]; replicate 4) was 1.0118 and the “IL-1b liver mRNA, relative expression” value ([1]; replicate 4) was 0.1494. The “IL-6 liver mRNA, relative expression” value ([1]; replicate 4) was 0.2961, the “LY6G liver mRNA, relative expression” value ([1]; replicate 4) was 2.4 and the “iNOS liver mRNA, relative expression” value ([1]; replicate 4) was 0.5084. The “CD14 liver mRNA, relative expression” value ([1]; replicate 5) was 0.8521, the “F4/80 liver mRNA, relative expression” value ([1]; replicate 5) was 0.7678 and the “IL-1b liver mRNA, relative expression” value ([1]; replicate 5) was 0.1331. For the same compound, the “IL-6 liver mRNA, relative expression” value ([1]; replicate 5) was 0.3878, the “iNOS liver mRNA, relative expression” value ([1]; replicate 5) was 1.435 and the “F4/80 liver mRNA, relative expression” value ([1]; replicate 6) was 1.044. For the same compound, the “IL-6 liver mRNA, relative expression” value ([1]; replicate 6) was 0.3111, the “G6Pase expression level in liver” value ([1]; HFD mice, JT003 500 μg kg−1, compared to HFD mice, in words) was “significantly elevated” and the “expression of antioxidant enzymes (SOD and CAT) and mitochondrial biogenesis regulators (PGC1α and PGC1β)” value [1, 4] was “accelerated prominently”. The “expression of genes related to fatty acid synthesis (PPARγ, ACC1, FASN, DGAT1, FAS, SCD1, ASCL3), fatty acid uptake (CD36) and cholesterol synthesis (HMGCR, SREBP-1C)” value [1, 4] was “significantly inhibited”, the “expression of genes responsible for fatty acid β-oxidation (LCAD, MCAD, UCP2, CPT1α)” value [1, 4] was “much higher” and the “overexpression of genes related to inflammation (LY6G, F4/80, IL-6, IL-1β, iNOS, CD14) and ER stress (XBP1, ATF4, CHOP, BID and GRP78)” value [1, 4] was “suppressed significantly”. The “upregulation of genes related to mitochondrial dysfunction (CYP2E1, BAX, NQO1, SRXN1 and GPX1)” value [1, 4] was “suppressed remarkably”, the “HYP, Supplementary Figure 14” value ([2]; replicate 1) was 4.654 and the “HYP, Supplementary Figure 14” value ([2]; replicate 2) was 11.7831. For the same compound, the “HYP, Supplementary Figure 14” value ([2]; replicate 3) was 12.1297, the “AST, Supplementary Figure 14” value ([2]; replicate 1) was 54.5376 and the “AST, Supplementary Figure 14” value ([2]; replicate 2) was 45.2431. The “AST, Supplementary Figure 14” value ([2]; replicate 3) was 22.8392, the “AST, Supplementary Figure 14” value ([2]; replicate 4) was 27.6777 and the “AST, Supplementary Figure 14” value ([2]; replicate 5) was 24.2523. The “AST, Supplementary Figure 14” value ([2]; replicate 6) was 28.6282, the “ALT, AST and HYP activities” value ([2]; CCl4 mice, JT003 500 μg kg−1 i.p. daily 3 weeks, in words) was “notably diminished” and the “Kd value for AdipoR2 compared to JT006 and ADP355” value (AdipoR2) was “significantly lower Kd value”. The “inflammation, necrosis and fibrosis area (HE and sirius red staining)” value ([3]; CCl4 induced liver fibrosis mice, administration dosages of 0.5 mg kg−1 and 2 mg kg−1) was “significantly decreased”, the “liver adhesion (dissected assays)” value ([3]; CCl4 induced liver fibrosis mice) was “reduced” and the “IHC staining of CD68 (macrophage infiltration)” value ([3]; CCl4 mice, JT003 500 μg kg−1) was “markedly reduced the inflammation”. For the same compound, the “immunohistochemical staining for αSMA and COL1α1” value ([3]; CCl4 mice, JT003 500 μg kg−1) was “confirmed the improvement of liver fibrosis”.
